In publication PMC8402032, “Unsymmetric Cisplatin-Based Pt(IV) Conjugates Containing a PARP-1 Inhibitor Pharmacophore Tested on Malignant Pleural Mesothelioma Cell Lines” (Molecules, 2021):

Legend:
[1] = tested on: MM98 (sarcomatoid) malignant pleural mesothelioma cells; assay: Cell viability assay (Trypan blue dye exclusion), MM98; type: cell-based, human; conditions: 72 h treatment
Protocol: (§1) Complexes 6–9 were tested on a panel of human MPM cell lines together with CDDP and SAA1, added for comparison (Table 1). The half-maximal inhibitory concentration, IC50, was determined on MSTO-211H (biphasic phenotype), REN (epithelioid), BR95 (epithelioid), and MM98 (sarcomatoid) cancer cell lines to identify the most promising Pt(IV) conjugate to be further investigated. To determine the number of viable cells, the use of the dye exclusion assay was preferred to the colorimetric assay because of the heterogeneity in the energy metabolism between the different MPM cell lines. This may justify minor differences with respect to the previously published IC50 for CDDP [40].
Cells were seeded at a density of 10 × 10^4 cells per well in 6-well plates in RPMI medium supplemented with 10% fetal bovine serum (FBS), 100 μg mL^−1 streptomycin, and 10 μg mL^−1 penicillin and incubated overnight at 37 °C in a humidified environment containing 5% CO2 to allow adherence. Cisplatin was dissolved in 0.9% w/v aqueous NaCl brought to pH = 3 with HCl (final stock concentration 1 mM). The Pt(IV) complexes were dissolved in DMSO (final stock concentration 5 mM); the resulting solutions were microfiltered (0.45 μm) and their Pt content was checked by ICP-MS (see Section 3.5.2). These mother solutions were diluted in complete medium to the required concentration range.
(§2) Following 72 h of treatment with the diluent of the compound (Ctrl) or different doses of the Pt compounds, cells were trypsinized and stained with Trypan blue. The number of cells considered viable (unstained cells) was counted in a Bürker haemocytometer within 5 min after staining.

MSTO-211H cells = assay: γH2AX foci immunofluorescence; type: cell-based, human; conditions: 5 µM, 72 h
Protocol: This is in tune with the activation by reduction mechanism (Scheme 1) that is able to generate CDDP in the cells.
MSTO-211H cells were plated on slides and treated for 72 h with diluent or 5 μM complex 6. Slides were then fixed for 20 min with 4% paraformaldehyde (Sigma-Aldrich), rinsed with PBS, and then the cells were permeabilized for 5 min in 0.1% Triton X-100, followed by three 5 min PBS washes. Slides were treated thrice for 10 min in a blocking solution of 5% bovine serum albumin (BSA) (Invitrogen). Mouse anti-γH2AX antibody (Millipore) was added (1:100 in 1% BSA) and incubated for 1 h in a dark, humidified environment at room temperature. Slides were then exposed to a secondary goat anti-mouse antibody, FITC (1:100 in PBS) and incubated for 1 h in the dark, humidified environment at room temperature. Slides were rinsed thrice in PBS, mounted, and cell imaged with a Leica fluorescence microscope.
Figure 4 (A) Representative Western blot showing poly(ADP-ribose) (PAR) and PARP-1 expression following 72 h MSTO-211H cell treatment with diluent (Ctrl) or 5 µM concentrations of cisplatin (CDDP), 6, CDDP + 3-ABA combination (1:1 ratio), and 3-ABA alone. HSC70 protein was used as loading control. (B) Immunocytochemistry was used to capture representative γH2AX focus images following 72 h MSTO-211H cell treatment with diluent (Ctrl) or 5 µM of complex 6.

human MPM cell lines = assay: Antiproliferative activity on the panel of human MPM cell lines (summary); type: cell-based
Protocol: as §1
Cells were seeded at a density of 10 × 10^4 cells per well in 6-well plates in RPMI medium supplemented with 10% fetal bovine serum (FBS), 100 μg mL^−1 streptomycin, and 10 μg mL^−1 penicillin and incubated overnight at 37 °C in a humidified environment containing 5% CO2 to allow adherence. Cisplatin was dissolved in 0.9% w/v aqueous NaCl brought to pH = 3 with HCl (final stock concentration 1 mM). […]
as §2

PARP-1 = assay: Western blot analysis of PARP-1 expression in MSTO-211H cells; type: cell-based, human; conditions: 72 h, equitoxic (IC50) concentrations, whole cell lysate
Protocol: It is necessary to verify how much the presence of the bulky Fmoc group might affect the recognition of the PARP catalytic domain. It is important to recall that all PARPis designed as analogues of nicotinamide must contain a primary or secondary amide. Indeed, this is the case of 6 [27]. The effects of compounds 6–9 on the expression of PARP-1 were evaluated by treating MSTO-211H cells for 72 h with equitoxic (at their IC50) concentrations of complexes, followed by Western blot analysis of whole cell lysate. […] First of all, the higher cellular uptake of 6 and 7 increases the intracellular concentration of the Pt metabolite and, in particular, of the ligands, potentially PARPis (synergistic cellular accumulation). […]
For protein analysis, cells were extracted with 1% NP-40 lysis buffer (50 mM Tris-HCl pH 8.5 containing 1% NP-40, 150 mM NaCl, 10 mM EDTA, 10 mM NaF, 10 mM Na4P2O7, and 0.4 mM Na3VO4) with freshly added protease inhibitors (10 μg mL^−1 leupeptin, 4 μg mL^−1 pepstatin, and 0.1 U mL^−1 aprotinin). […] Following SDS-PAGE, proteins were transferred to nitrocellulose, reacted with specific antibodies, and then detected with peroxidase-conjugate secondary antibodies and chemioluminescent ECL reagent. Digital images were taken with the Bio-Rad ChemiDocTM Touch Imaging System and quantified using Bio-Rad Image Lab 5.2.1. […]

[2] = Lipophilicity by RP-HPLC (log k′); type: physicochemical; conditions: RP-HPLC C18, 15 mM formic acid/CH3OH 30/70
Text: Since it has been reported that Pt(IV) complexes enter cells by passive diffusion only, with a few exceptions, the evaluation of lipophilicity is key because it is related to the ability of a molecule to passively cross cellular membranes. RP-HPLC techniques are often used to measure the lipophilicity of a compound, since the retention is due to partitioning between the C18 chains of the stationary phase (representing the cellular membrane) and the aqueous eluent (representing the water inside and outside cells). For this purpose, the retention times (tR) of the complexes were transformed as log k′, where k′ = (tR − t0)/t0) and t0 is the column dead-time (Table 1).
RP-HPLC was used to evaluate the capacity factors of the compounds as reported elsewhere. Briefly, a chromatogram for each Pt complex (0.5 mM) was run on a C18 column Phenosphere-NEXT (5-μm, 250 × 4.6 mm ID) with an eluant composition of 15 mM formic acid/CH3OH 30/70 and a flow rate of 0.5 mL min^−1. The corresponding retention time tR was used to calculate log k′, where k′ = (tR − t0)/t0. The dead time of the column t0 was the tR of KCl, added as unretained internal reference.

Structure (SMILES): CC(=O)[O][Pt]([NH2])([NH2])([Cl])([Cl])[O]C(=O)CCNC(=O)c1cccc(NC(=O)OCC2c3ccccc3-c3ccccc32)c1 [Compound 6, (OC-6-44)-Acetato[3-(3-(fmoc-amino)-benzamido)-propanoato]-diammine-dichlorido-platinum(IV)]
- ratio IC50 (cisplatin)/IC50 (Pt(IV) complex), MM98 [1]: 1.8
- IC50 ([1]; mean ± sd): 980 ± 30 nM
- DNA damage (γH2AX foci) (MSTO-211H cells): increased number of γH2AX foci
- ratio between the IC50 of CDDP and the IC50 of the Pt(IV) complex, all cell lines (human MPM cell lines): around 2
- PARP-1 expression (PARP-1): lower expression of PARP-1 in the series
- Log k′ [2]: 4.22
